Our source for the IC50 values is US12662490B2, “Heterocyclic compounds” (Hoffmann-La Roche Inc., priority 2019, dated 2026).

For this assay, the target named is T1, MAGL (Homo sapiens, UniProt Q99685).
T1 sequence (Q99685 1-303): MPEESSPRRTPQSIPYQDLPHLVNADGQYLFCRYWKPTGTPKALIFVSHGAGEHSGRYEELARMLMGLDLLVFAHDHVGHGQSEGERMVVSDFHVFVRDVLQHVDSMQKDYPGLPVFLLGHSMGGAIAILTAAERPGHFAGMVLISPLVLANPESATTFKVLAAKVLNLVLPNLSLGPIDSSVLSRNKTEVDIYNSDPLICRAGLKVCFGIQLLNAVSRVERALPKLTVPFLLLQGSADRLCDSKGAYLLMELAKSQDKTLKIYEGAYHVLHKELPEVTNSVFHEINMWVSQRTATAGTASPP
The assay can be described thus: 2-AG assay (MAGL inhibitory activity; hydrolysis of 2-arachidonoylglycerol to arachidonic acid followed by mass spectrometry). The assay is classed as biochemical. To be noted: 15 min preincubation at RT, 8 μM 2-arachidonoylglycerol, 30 min at RT, RapidFire MS readout. As for the experimental part:
Compounds were profiled for MAGL inhibitory activity by determining the enzymatic activity by following the hydrolysis of the natural substrate 2-arachidonoylglycerol (2-AG) resulting in arachidonic acid, which can be followed by mass spectrometry. This assay is hereinafter abbreviated “2-AG assay”.
The 2-AG assay was carried out in 384 well assay plates (PP, Greiner Cat #784201) in a total volume of 20 μL. Compound dilutions were made in […] (VWR Chemicals 23500.297) in a polypropylene plate in 3-fold dilution steps to give a final concentration range in the assay from 12.5 μM to […]. 0.25 μL compound dilutions (100% DMSO) were added to 9 μL MAGL in assay buffer (50 mM TRIS (GIBCO, 15567-027), 1 mM EDTA (Fluka, 03690-100 mL), 0.010 (v/v) Tween. After shaking, the plate was incubated for 15 min at RT. To start the reaction, 10 μL 2-arachidonoylglycerol in assay buffer was added. The final concentrations in the assay was […] and 8 μM 2-arachidonoylglyerol. After shaking and 30 min incubation at RT, the reaction was quenched by the addition of 40 μL of ACN containing 4 μM of d8-arachidonic acid. The amount of arachidonic acid was traced by an online SPE system (Agilent Rapidfire) coupled to a triple quadrupole mass spectrometer (Agilent 6460). A C18 SPE cartridge (G9205A) was used in an ACN/water liquid setup. The mass spectrometer was operated in negative electrospray mode following the mass transitions 303.1→259.1 for arachidonic acid and 311.1→267.0 for d8-arachidonic acid. The activity of the compounds was calculated based on the ratio of intensities [arachidonic acid/d8-arachidonic acid].
By IC50 is commonly meant the concentration at which inhibition is half-maximal. Low readings indicate higher potency, high ones lower potency. As for `COc1cccc(C(=O)N2CCN3CC(c4ccc5c(c4)CC5)OCC3C2)c1Cl` (mixture of isomers) [Example 47, [3-(3-bicyclo[4.2.0]octa-1,3,5-trienyl)-3,4,6,7,9,9a-hexahydro-1H-pyrazino[2,1-c][1,4]oxazin-8-yl]-(2-chloro-3-methoxy-phenyl)methanone], the half-maximal inhibitory concentration (IC50) stood at 134 nM.

In turn, `COc1cccc(C(=O)N2CCN3CC(c4ccc(C(F)F)cc4)OCC3C2)c1Cl` (mixture of isomers) [Example 48, (2-chloro-3-methoxy-phenyl)-[3-[4-(difluoromethyl)phenyl]-3,4,6,7,9,9a-hexahydro-1H-pyrazino[2,1-c][1,4]oxazin-8-yl]methanone] registered an IC50 of 146 nM.

For `O=C(c1cccc(-c2c[nH]nc2F)c1Cl)N1CCN2CC(c3ccc(C(F)(F)F)nc3)OC[C@@H]2C1` (mixture of isomers) [Example 68, [(9aS)-3-[6-(trifluoromethyl)-3-pyridyl]-3,4,6,7,9,9a-hexahydro-1H-pyrazino[2,1-c][1,4]oxazin-8-yl]-[2-chloro-3-(3-fluoro-1H-pyrazol-4-yl)phenyl]methanone], the half-maximal inhibitory concentration (IC50) came to 15.8 nM.

As to `O=C(c1cccc(-c2c[nH]nc2F)c1Cl)N1CCN2CC(c3ccc(Br)nc3)OC[C@@H]2C1` (mixture of isomers) [Example 70, [2-chloro-3-(3-fluoro-1H-pyrazol-4-yl)phenyl]-[(9aS)-3-(6-bromo-3-pyridyl)-3,4,6,7,9,9a-hexahydro-1H-pyrazino[2,1-c][1,4]oxazin-8-yl]methanone], half-maximal inhibition (IC50) was put at 44.6 nM. This IC50 lies about 2.8-fold higher than the previous one.

Take `O=C(c1cccc(-c2c[nH]nc2F)c1Cl)N1CCN2CC(c3ccc(OC(F)F)cc3)OC[C@@H]2C1` (mixture of isomers) [Example 73, (2-chloro-3-(3-fluoro-1H-pyrazol-4-yl)phenyl)((9aS)-3-(4-(difluoromethoxy)phenyl)hexahydropyrazino[2,1-c][1,4]oxazin-8(1H)-yl)methanone]: the IC50 came to 53.3 nM.

On to `COc1cccc(C(=O)N2CCN3C[C@@H](c4ccc(F)c(Cl)c4)OC[C@@H]3C2)c1Br` (racemic) [Example 2, (2-bromo-3-methoxy-phenyl)-[rac-(3R,9aS)-3-(3-chloro-4-fluoro-phenyl)-3,4,6,7,9,9a-hexahydro-1H-pyrazino[2,1-c][1,4]oxazin-8-yl]methanone], for which half-maximal inhibition (IC50) was put at 14.6 nM.

In the case of `C/C=C/c1cc([C@@H]2CN3CCN(C(=O)c4cccc(OC)c4Cl)C[C@H]3CO2)ccc1F` (racemic) [Example 10, (2-chloro-3-methoxy-phenyl)-[(3R,9aS)-3-[4-fluoro-3-[rac-(E)-prop-1-enyl]phenyl]-3,4,6,7,9,9a-hexahydro-1H-pyrazino[2,1-c][1,4]oxazin-8-yl]methanone], half-maximal inhibition (IC50) required 179 nM.

As to `COc1cccc(C(=O)N2CCN3C[C@H](c4ccc(Br)cn4)OC[C@H]3C2)c1Cl` (racemic) [Example 53, (2-chloro-3-methoxy-phenyl)-[rac-(3R,9aR)-3-(5-bromo-2-pyridyl)-3,4,6,7,9,9a-hexahydro-1H-pyrazino[2,1-c][1,4]oxazin-8-yl]methanone], the concentration for half-maximal inhibition (IC50) was 76 nM.

Consider `COc1cccc(C(=O)N2CCN3C[C@@H](c4ccc(Br)cn4)OC[C@H]3C2)c1Cl` (racemic) [Example 54, (2-chloro-3-methoxy-phenyl)-[rac-(3S,9aR)-3-(5-bromo-2-pyridyl)-3,4,6,7,9,9a-hexahydro-1H-pyrazino[2,1-c][1,4]oxazin-8-yl]methanone], for which the IC50 was 975 nM.

On to `COc1cccc(C(=O)N2CCN3C[C@H](c4cncc(Cl)c4)OC[C@@H]3C2)c1Cl` (racemic) [Example 58, (2-chloro-3-methoxy-phenyl)-[rac-(3S,9aS)-3-(5-chloro-3-pyridyl)-3,4,6,7,9,9a-hexahydro-1H-pyrazino[2,1-c][1,4]oxazin-8-yl]methanone], for which inhibition was half-maximal at 2220 nM (IC50).
